PMC7756582, “Prodrugs of γ‐Alkyl‐Modified Nucleoside Triphosphates: Improved Inhibition of HIV Reverse Transcriptase” (Angewandte Chemie (International Ed. in English), 2020)

Columns and labels:
[1] = tested on: pig liver esterase (PLE); test: Enzymatic hydrolysis with pig liver esterase (PLE); type: in vitro ADME; settings: pH 7.3, 37 °C; for cleavage of the alkyl residue by esterase: PLE in PBS; for half-life at 0.45 mM: pig liver esterase (PLE) in PBS, pig liver esterase in PBS, read-out: t 1/2 with PLE (cleavage of acyloxybenzyl masking unit)
Procedure: Next, the enzymatic stability of prodrugs γ‐(AB‐C4,alkyl‐C18)‐d4TTP 6 cz and γ‐(AB‐C15,alkyl‐C4)‐d4TTP 6 ew was examined by incubation with PLE, which is used as a model enzyme for studying the esterase activation of the prodrugs, in PBS, pH 7.3 at 37 °C. […] This proves our initial concept of introducing an enzyme (esterase)‐stable group to the γ‐phosphate unit.
ProLab 300 from Schott Co.. Thermomixer: Eppendorf Thermomixer 5436 and CellMedia Thermoschüttler basic were used.
Fluorescent Imager: ChemiDoc™ MP Imaging System (170-8280) from Bio-Rad Co. was used for primer extension study.
Electrophoresis: Thermo Fisher OwlTM S4S Aluminum-Backed Sequencer System. Power supply: Consort EV2230 Gel […]
Further aliquots were taken for monitoring the kinetic hydrolysis. The exponential decay curves (pseudo-first order) based on absolute integral values were calculated with commercially available software (OriginPro 9.0G) and yielded the half-lives t1/2 of the prodrugs via one determination.
Enzymatic hydrolysis of compounds 6,7 with pig liver esterase (PLE):
10 µL 50 mM DMSO stock solution of compounds 6,7 was diluted to 6.0 mM hydrolysis solution by addition of 31.7 µL DMSO and 41.7 µL ultrapure water. Then 83.3 µl of the 6.0 mM solution was diluted with 125 µL DMSO and 833 µl 50 mM PBS buffer (pH 7.3).
The reaction was started by addition of 62.5 µl of PLE in PBS buffer (3 mg/mL) and the mixture was incubated with 800 rpm at 37 °C in a thermomixer. At different times, aliquots (100 µl) were taken and the reaction was stopped by addition to […] MeOH. The mixture was kept for 5 min on ice followed by centrifugation for 5 min (13000 rpm). The mixture was filtered (Chromafil RC-20/15 MS, […]) and stored in liquid nitrogen. When testing, the samples were defrosted and injection volume with 80 µL was used for HPLC […]
The calculation of t1/2 was performed analogously to that for the chemical hydrolysis studies.
Preparation of cell extracts: Human CD4+ T-lymphocyte CEM cells were grown in RPMI-1640-based cell culture medium to a final density of ~3·10^6 cells/ml. Then, cells were centrifuged for 10 min at 1,250 rpm at 4 °C, washed twice with cold PBS, and the pellet was re-suspended at 10^8 cells/ml and sonicated (Hielscher Ultrasound Techn., 100% amplitude, 3·times for 10 sec) to destroy cell integrity. The resulting cell suspension was then centrifuged at 10,000 rpm to remove cell debris, and the supernatant divided in aliquots before being frozen at -80 C and used.
(1 picture or pasted object on this page, not shown here)

[2] = target: T1, HIV reverse transcriptase (RT) (Human immunodeficiency virus type 1 group M subtype B, UniProt P03366); test: Primer extension assay with HIV-RT; type: biochemical, HIV-1; settings: for primer extension by HIV-RT (substrate properties): with the other three canonical triphosphates, HIV-RT 6 U
T1 construct: reverse transcriptase (RT; an HIV‐encoded RNA‐dependent DNA polymerase); purchased Roboklon
Procedure: Primer-extension reactions:
HIV-RT and human DNA polymerase β and γ were obtained from Roboklon, human DNA polymerase α was obtained from Chimerx.
The primers and templates were purchased from Life Technologies and Microsynth. The fluorescent labeled primer was purchased
from Metabion and Microsynth. The gels were prepared with the size of 450mm×200mm×0.4mm according to the electrophoresis
5’-FITC and 5’-Cy3 labeled Primer-sequence:
The primer extension assays were performed under the following conditions:
FITC and Cy3 labeled primer extension assay:
1) Hybridization: After 5 min incubation at 95 °C in 20 mM Tris-HCl (pH 7.6) and 50 mM NaCl, the hybridization/annealing of the
primer to the template strand was achieved by a cooling phase from 95 °C to […] lasted more than 2 hours. […]
The assays were separated using a denaturating PAGE (15%). The result was visualized by fluorescence imaging. […]
(§1) The result was visualized by fluorescence imaging. […]
as §1

| half-life at 0.45 mM [1] | Structure (SMILES) | cleavage of the alkyl residue by esterase [1] | primer extension by HIV-RT (substrate properties) ([2]; 60 min incubation, dNTPs 66 μM) | also measured |
| --- | --- | --- | --- | --- |
| – | CCCCCCCCCCCCCCCCCCOP(=O)(O)OP(=O)(O)OP(=O)(O)OCC1C=CC(n2cc(C)c(=O)[nH]c2=O)O1 (stereo not drawn) [7 z, γ‐C18‐d4TTP] | no cleavage of the alkyl residue | Only the n+1 band was detected | primer extension by HIV-RT (substrate properties) ([2]; 30 min incubation): immediate chain termination |
| – | CCCCOP(=O)(O)OP(=O)(O)OP(=O)(O)OCC1C=CC(n2cc(C)c(=O)[nH]c2=O)O1 (stereo not drawn) [7 w, γ‐C4‐d4TTP] | no cleavage of the alkyl residue | – | primer extension by HIV-RT (substrate properties) ([2]; 15 min incubation): single incorporation and an immediate chain termination; comparison of substrate properties for HIV-RT ([2]; incubation 10, 20, 40 and 60 min, conversion of primer to n+1 product): better substrates |
| 8.1 min | CCCCCCCCCCCCCCCCCCOP(=O)(OCc1ccc(OC(=O)CCCC)cc1)OP(=O)(O)OP(=O)(O)OCC1C=CC(n2cc(C)c(=O)[nH]c2=O)O1 (stereo not drawn) [6 cz, γ‐(AB‐C4,alkyl‐C18)‐d4TTP] | – | – | – |
| – | Cc1cn(C2C=CC(COP(=O)(O)OP(=O)(O)OP(=O)(O)O)O2)c(=O)[nH]c1=O (stereo not drawn) [2 t, d4TTP, reference compound] | – | only the n+1 band is visible | – |
| 25.5 min | CCCCCCCCCCCCCCCC(=O)Oc1ccc(COP(=O)(OCCCC)OP(=O)(O)OP(=O)(O)OCC2C=CC(n3cc(C)c(=O)[nH]c3=O)O2)cc1 (stereo not drawn) [6 ew, γ‐(AB‐C15,alkyl‐C4)‐d4TTP] | – | – | – |
